Measurements taken from ChEMBL document CHEMBL1149580, “Caco-2 cell permeability and stability of two d-glucopyranuronamide conjugates of thyrotropin-releasing hormone” (Bioorg Med Chem, 2007).
Non-standard residues stand in square brackets, D forms with d. Residues, ends and D or L forms follow the SMILES beside them. ξ: configuration not given here. *: point of attachment. X1 = NC(=O)[C@H]1OC(N*)[C@H](O)[C@@H](O)[C@@H]1O; ξAoc(2) = CCCCCCC(N)C(=O)O

Columns and labels:
[1] = Stability in Caco-2 cells after 2 hrs; type: ADME, cell-based; details: human, read-out: Stability
[2] = Apparent permeability across human Caco-2 cells; type: ADME, cell-based
[3] = Stability in Caco-2 cells assessed as half life; type: ADME, cell-based, Colon; details: human
[4] = Stability in Caco-2 cells after 20 mins; type: ADME, cell-based; details: human, read-out: Stability

Row | remaining at 2 h [1] | Papp [2] | half-life [3] | remaining at 20 min [4] | Compound
1 | 20% | 5.1 ×10⁻⁶ cm/s | 20 min |  | NC(=O)[C@H]1OC(NC(=O)[C@@H]2CCCN2C(=O)[C@H](Cc2cnc[nH]2)NC(=O)[C@@H]2CCC(=O)N2)[C@H](O)[C@@H](O)[C@@H]1O (stereo not given in full)
2 | 20% | 16.3 ×10⁻⁶ cm/s | 20 min |  | CCCCCCC(N)C(=O)N[C@@H](CCC(N)=O)C(=O)N[C@@H](Cc1cnc[nH]1)C(=O)N1CCC[C@H]1C(=O)NC1O[C@H](C(N)=O)[C@@H](O)[C@H](O)[C@H]1O (stereo not given in full) (H-[ξAoc(2)]QHP-X1)
3 |  | 0.0825 ×10⁻⁶ cm/s |  |  | OC[C@@H](O)[C@@H](O)[C@H](O)[C@H](O)CO [MANNITOL]
4 |  | 0.147 ×10⁻⁶ cm/s | 3 min | < 5% | NC(=O)[C@@H]1CCCN1C(=O)[C@H](Cc1cnc[nH]1)NC(=O)[C@@H]1CCC(=O)N1 [PROTIRELIN]
